Assay results taken from ChEMBL document CHEMBL3885861, “Open TG-GATES”.

Species on record: Rattus norvegicus
Assay: Open TG-GATES - Regimen: Single
Type: toxicity, organism-based, Sprague-Dawley
Design: regimen Single, gender Male, age 6 weeks
Settings: in vivo, po, route gavage; for gamma-GTP / ALT / AST / BUN / CRE / Ca / Cl / DBIL / GLC / IP / K / LDH / Na / PL / RALB / TBIL / TC / TP: tissue Plasma; for Bas / Eos / Fbg / Hb / Ht / Lym / MCHC / MCV / Mono / Neu / Plat / RBC / Ret / WBC: tissue Blood; for KIDNEY_TOTAL: tissue Kidney; for LIVER: tissue Liver
[1] = 50 mg/kg, 24 h, dose level High

**Q.** Which results are given for `C[C@@H]1C[C@H]2[C@@H]3CCC4=CC(=O)C=C[C@]4(C)[C@@]3(F)[C@@H](O)C[C@]2(C)[C@@]1(O)C(=O)CO` [DEXAMETHASONE]?
**A.** gamma-GTP (5 mg/kg, 24 h, dose level Middle): 0 IU/L; TERMINAL_BW (50 mg/kg, 3 h, dose level High): 214.6 g; Bas (50 mg/kg, 3 h, dose level High): 0%; Eos (50 mg/kg, 3 h, dose level High): 0.8%; Fbg (50 mg/kg, 3 h, dose level High): 244.4 mg/dL; Hb (50 mg/kg, 3 h, dose level High): 13.1 g/dL; Ht (50 mg/kg, 3 h, dose level High): 40.1%; Lym (50 mg/kg, 3 h, dose level High): 58%; MCHC (50 mg/kg, 3 h, dose level High): 32.5%; MCV (50 mg/kg, 3 h, dose level High): 63.1 fL; Mono (50 mg/kg, 3 h, dose level High): 2.8%; Neu (50 mg/kg, 3 h, dose level High): 38.8%; Plat (50 mg/kg, 3 h, dose level High): 125.2 x10_4/uL; RBC (50 mg/kg, 3 h, dose level High): 635.6 x10_4/ul; Ret (50 mg/kg, 3 h, dose level High): 7.4%; WBC (50 mg/kg, 3 h, dose level High): 35.1 x10_2/uL; KIDNEY_TOTAL (50 mg/kg, 3 h, dose level High): 0.6 g; LIVER (50 mg/kg, 3 h, dose level High): 10.7 g; ALT (50 mg/kg, 3 h, dose level High): 40.4 IU/L; AST (50 mg/kg, 3 h, dose level High): 75.2 IU/L; BUN (50 mg/kg, 3 h, dose level High): 15.6 mg/dL; CRE (50 mg/kg, 3 h, dose level High): 0.4 mg/dL; Ca (50 mg/kg, 3 h, dose level High): 11.3 mg/dL; Cl (50 mg/kg, 3 h, dose level High): 103.2 meq/L; DBIL (50 mg/kg, 3 h, dose level High): 0.012 mg/dL; GLC (50 mg/kg, 3 h, dose level High): 198.8 mg/dL; IP (50 mg/kg, 3 h, dose level High): 11.5 mg/dL; K (50 mg/kg, 3 h, dose level High): 3.9 meq/L; LDH (50 mg/kg, 3 h, dose level High): 85.4 IU/L; Na (50 mg/kg, 3 h, dose level High): 142 meq/L; PL (50 mg/kg, 3 h, dose level High): 152.8 mg/dL; RALB (50 mg/kg, 3 h, dose level High): 4.3 g/dL; TBIL (50 mg/kg, 3 h, dose level High): 0.04 mg/dL; TC (50 mg/kg, 3 h, dose level High): 91 mg/dL; TP (50 mg/kg, 3 h, dose level High): 6.1 g/dL; gamma-GTP (50 mg/kg, 3 h, dose level High): 1 IU/L; TERMINAL_BW (50 mg/kg, 6 h, dose level High): 208.4 g; Bas (50 mg/kg, 6 h, dose level High): 0%; Eos (50 mg/kg, 6 h, dose level High): 0%; Fbg (50 mg/kg, 6 h, dose level High): 244.4 mg/dL; Hb (50 mg/kg, 6 h, dose level High): 13.3 g/dL; Ht (50 mg/kg, 6 h, dose level High): 40.4%; Lym (50 mg/kg, 6 h, dose level High): 61.8%; MCHC (50 mg/kg, 6 h, dose level High): 32.9%; MCV (50 mg/kg, 6 h, dose level High): 63.8 fL; Mono (50 mg/kg, 6 h, dose level High): 3.4%; Neu (50 mg/kg, 6 h, dose level High): 34.4%; Plat (50 mg/kg, 6 h, dose level High): 119.3 x10_4/uL; RBC (50 mg/kg, 6 h, dose level High): 634 x10_4/ul; Ret (50 mg/kg, 6 h, dose level High): 7.1%; WBC (50 mg/kg, 6 h, dose level High): 26.8 x10_2/uL; KIDNEY_TOTAL (50 mg/kg, 6 h, dose level High): 0.5 g; LIVER (50 mg/kg, 6 h, dose level High): 10.5 g; ALT (50 mg/kg, 6 h, dose level High): 40.8 IU/L; AST (50 mg/kg, 6 h, dose level High): 83 IU/L; BUN (50 mg/kg, 6 h, dose level High): 16.2 mg/dL; CRE (50 mg/kg, 6 h, dose level High): 0.4 mg/dL; Ca (50 mg/kg, 6 h, dose level High): 11.4 mg/dL; Cl (50 mg/kg, 6 h, dose level High): 104.6 meq/L; DBIL (50 mg/kg, 6 h, dose level High): 0.01 mg/dL; GLC (50 mg/kg, 6 h, dose level High): 215.2 mg/dL; IP (50 mg/kg, 6 h, dose level High): 8.1 mg/dL; K (50 mg/kg, 6 h, dose level High): 4.1 meq/L; LDH (50 mg/kg, 6 h, dose level High): 80.6 IU/L; Na (50 mg/kg, 6 h, dose level High): 140.2 meq/L; PL (50 mg/kg, 6 h, dose level High): 157.6 mg/dL; RALB (50 mg/kg, 6 h, dose level High): 4.6 g/dL; TBIL (50 mg/kg, 6 h, dose level High): 0.036 mg/dL; TC (50 mg/kg, 6 h, dose level High): 106.4 mg/dL; TP (50 mg/kg, 6 h, dose level High): 6.5 g/dL; gamma-GTP (50 mg/kg, 6 h, dose level High): 0 IU/L; TERMINAL_BW (50 mg/kg, 9 h, dose level High): 200.5 g; Bas (50 mg/kg, 9 h, dose level High): 0%; Eos (50 mg/kg, 9 h, dose level High): 0%; Fbg (50 mg/kg, 9 h, dose level High): 244.6 mg/dL; Hb (50 mg/kg, 9 h, dose level High): 13.5 g/dL; Ht (50 mg/kg, 9 h, dose level High): 41%; Lym (50 mg/kg, 9 h, dose level High): 42.8%; MCHC (50 mg/kg, 9 h, dose level High): 32.9%; MCV (50 mg/kg, 9 h, dose level High): 64.5 fL; Mono (50 mg/kg, 9 h, dose level High): 2%; Neu (50 mg/kg, 9 h, dose level High): 55.2%; Plat (50 mg/kg, 9 h, dose level High): 121.9 x10_4/uL; RBC (50 mg/kg, 9 h, dose level High): 636.2 x10_4/ul; Ret (50 mg/kg, 9 h, dose level High): 5.4%; WBC (50 mg/kg, 9 h, dose level High): 15.4 x10_2/uL; KIDNEY_TOTAL (50 mg/kg, 9 h, dose level High): 0.5 g; LIVER (50 mg/kg, 9 h, dose level High): 10.8 g; ALT (50 mg/kg, 9 h, dose level High): 39 IU/L; AST (50 mg/kg, 9 h, dose level High): 78.2 IU/L; BUN (50 mg/kg, 9 h, dose level High): 18.2 mg/dL; CRE (50 mg/kg, 9 h, dose level High): 0.4 mg/dL; Ca (50 mg/kg, 9 h, dose level High): 10.6 mg/dL; Cl (50 mg/kg, 9 h, dose level High): 103.2 meq/L; DBIL (50 mg/kg, 9 h, dose level High): 0.01 mg/dL; GLC (50 mg/kg, 9 h, dose level High): 238.8 mg/dL; IP (50 mg/kg, 9 h, dose level High): 6.6 mg/dL; K (50 mg/kg, 9 h, dose level High): 4.2 meq/L; LDH (50 mg/kg, 9 h, dose level High): 83.4 IU/L; Na (50 mg/kg, 9 h, dose level High): 138 meq/L; PL (50 mg/kg, 9 h, dose level High): 177.6 mg/dL; RALB (50 mg/kg, 9 h, dose level High): 4.6 g/dL; TBIL (50 mg/kg, 9 h, dose level High): 0.032 mg/dL; TC (50 mg/kg, 9 h, dose level High): 105.6 mg/dL; TP (50 mg/kg, 9 h, dose level High): 6.5 g/dL; gamma-GTP (50 mg/kg, 9 h, dose level High): 0.8 IU/L; TERMINAL_BW [1]: 218.5 g; Bas [1]: 0%; Eos [1]: 1.2%; Fbg [1]: 231 mg/dL; Hb [1]: 13.8 g/dL; Ht [1]: 42.2%; Lym [1]: 13.8%; MCHC [1]: 32.8%; MCV [1]: 63.1 fL; Mono [1]: 7.2%; Neu [1]: 78.4%; Plat [1]: 129.6 x10_4/uL; RBC [1]: 667.6 x10_4/ul; Ret [1]: 4.6%; WBC [1]: 26.2 x10_2/uL; KIDNEY_TOTAL [1]: 0.3 g; LIVER [1]: 14.3 g; ALT [1]: 52.8 IU/L; AST [1]: 102.2 IU/L; BUN [1]: 19.2 mg/dL; CRE [1]: 0.5 mg/dL; Ca [1]: 11.2 mg/dL; Cl [1]: 99.8 meq/L; DBIL [1]: 0.018 mg/dL; GLC [1]: 273.2 mg/dL; IP [1]: 6.7 mg/dL; K [1]: 4.6 meq/L; Na [1]: 138.8 meq/L; PL [1]: 260.8 mg/dL; RALB [1]: 4.6 g/dL; TBIL [1]: 0.042 mg/dL; TC [1]: 120.4 mg/dL; TP [1]: 6.5 g/dL; gamma-GTP [1]: 0.4 IU/L
